Data on two compounds can be found in US8975442B2, “Process for the preparation of and crystalline forms of optical enantiomers of modafinil” (Teva Sante, priority 2002, dated 2015).

Holding throughout (assay type): physicochemical
A short description of data set [1]: Solubility of modafinil acid in methanol. The source says: Solubility of the Racemic Mixture in Methanol:
Data set [2] is described as follows: Solubility of modafinil acid in ethanol. An excerpt:
Solubility of the Racemic Mixture in Ethanol:

Data set [3] is described as follows: Solubility of modafinil acid in 2-methoxyethanol. The source says:
Solubility of the Racemic Mixture in 2-Methoxyethanol: […]

Consider `O=C(O)C[S+]([O-])C(c1ccccc1)c1ccccc1` (racemic) [(±)-modafinil acid, (±)-benzhydrylsulphinylacetic acid], for which the Solubility by mass came out at 7.4% in data set [1] (10.0 °C); 9.7% in data set [1] (20.0 °C); 13.9% in data set [1] (30.0 °C); 25.7% in data set [1] (40.0 °C); 3.0% in data set [2] (10.0 °C); 4.1% in data set [2] (20.0 °C). Further, the Solubility by mass in data set [2] (30.0 °C) amounted to 5.96%; in data set [3] (10.0 °C), 7.4%; in data set [3] (20.0 °C) it was 8%; in data set [3] (30.0 °C), 13.5%; in data set [3] (40.0 °C), 16%. The “ratio α (ratio of solubilities s(±)/s(+))” value in data set [1] (20 °C) was determined as 2.53; in data set [2] (20 °C), 2.06; in data set [3] (20 °C), 2.53.

Take `O=C(O)C[S+]([O-])C(c1ccccc1)c1ccccc1` (single isomer, unassigned; (+)) [(+)-antipode]: the figures for the Solubility by mass in data set [1] (20.0 °C), in data set [2] (20.0 °C) and in data set [3] (20.0 °C) were 4.9%, 1.99% and 4%, respectively.
